“Also recorded” adds a separate entry of the source.
Legend:
[1] = tested on: acetylcholinesterase (AChE); assay: SpinDx pulldown AChE activity assay in human sample matrices with or without inhibition by paraoxon; format: biochemical; settings: pooled human tears, acetylthiocholine fluorogenic substrate
Text: For this reason, we developed a SpinDx-based assay to provide information on (non-specific) inhibition of cholinesterase (ChE), such that the SpinDx test at a minimum provides information similar to that which can be obtained with the existing Test-mate ChE test, but in a simpler, more portable format. The term “SpinDx-based assay,” as used herein, refers to a bead-based assay format that employs a centrifugal microfluidic disc for transporting such beads (e.g., as described in FIG. 1A-1B and FIG. 3A-3D).
Our SpinDx assay can include components for a fluorescent analog of the Ellman's assay, loaded within the density medium. Upon spinning the disk, the capture beads, but not the blood sample or erythrocytes, will partition into the density medium. […]
We tested the assay extensively in buffer prior to translating to human bodily fluids, using either heat or paraoxon to inhibit the AChE cholinesterase activity. We determined that, in buffer, our limit of detection (LOD) for AChE with the SpinDx assay was between 0.005 and 0.01 mU/mL, with a limit of quantitation (LOQ) of 0.015 to 0.024 mU/mL, depending on the time of incubation (shorter incubations actually gave lower limits of detection and quantitation, perhaps because the fluorogenic assay inherently has a slow signal generation over time due to spontaneous hydrolysis of the substrate). […]

[2] = tested on: acetylcholinesterase (AChE); assay: standard Abcam fluorescent AChE assay in a microplate (plate reader); format: biochemical; settings: human tears; microtiter plate format
Text: In addition, we performed side-by-side measurements of a series of samples including the human sample matrices and recombinantly expressed AChE with the SpinDx assay and with a traditional assay including a microtiter plate and plate reader (FIG. 7A-7B). The two assay formats show similar trends in the levels of activity, although certain samples (e.g., unkilled CSF) look dramatically higher in SpinDx than in the plate format.

For `CCOP(=O)(OCC)Oc1ccc([N+](=O)[O-])cc1` [paraoxon], the “reduction (kill) of cholinesterase activity by inhibitor” value [1] was “could not be reduced; also recorded: can't be killed” and the “reduction (kill) of apparent AChE activity by inhibitor” value [2] was “can't be killed”.
